One assay has as its target T1, Leucine aminopeptidase (Plasmodium falciparum 3D7, UniProt Q8IL11).
T1 sequence (Q8IL11 whole entry): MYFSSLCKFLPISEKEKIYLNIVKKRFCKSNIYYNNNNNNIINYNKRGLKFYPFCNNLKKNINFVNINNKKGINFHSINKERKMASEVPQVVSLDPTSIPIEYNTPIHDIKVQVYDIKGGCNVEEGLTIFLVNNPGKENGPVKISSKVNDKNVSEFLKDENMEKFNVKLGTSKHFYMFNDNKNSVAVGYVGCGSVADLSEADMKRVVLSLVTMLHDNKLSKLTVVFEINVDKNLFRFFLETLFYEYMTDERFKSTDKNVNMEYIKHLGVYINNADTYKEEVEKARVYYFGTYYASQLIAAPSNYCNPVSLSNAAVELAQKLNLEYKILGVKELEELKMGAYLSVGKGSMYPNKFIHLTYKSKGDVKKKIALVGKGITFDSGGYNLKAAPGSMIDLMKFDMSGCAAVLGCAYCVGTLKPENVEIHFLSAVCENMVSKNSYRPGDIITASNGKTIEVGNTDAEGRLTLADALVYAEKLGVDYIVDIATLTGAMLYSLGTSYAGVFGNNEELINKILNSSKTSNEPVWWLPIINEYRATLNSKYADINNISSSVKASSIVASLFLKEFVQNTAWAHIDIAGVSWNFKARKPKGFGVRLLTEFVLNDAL
As to the kind of experiment: P. falciparum M17LAP inhibitors, primary screen, biochemical, fluorogenic H-Leu-NHMec substrate, 1536-well (AID 1619). Format: functional.

Another assay deals with Procathepsin L (Homo sapiens, UniProt P07711). As to the kind of experiment: cathepsin L inhibitors, dose response, counter-screen for M1/M17 aminopeptidase inhibitor project, biochemical, QFRET, 1536-well (AID 2214). A general note: A counterscreen serves to expose hits that act by an unwanted route or on another target.
Procathepsin L, sequence (P07711 whole entry): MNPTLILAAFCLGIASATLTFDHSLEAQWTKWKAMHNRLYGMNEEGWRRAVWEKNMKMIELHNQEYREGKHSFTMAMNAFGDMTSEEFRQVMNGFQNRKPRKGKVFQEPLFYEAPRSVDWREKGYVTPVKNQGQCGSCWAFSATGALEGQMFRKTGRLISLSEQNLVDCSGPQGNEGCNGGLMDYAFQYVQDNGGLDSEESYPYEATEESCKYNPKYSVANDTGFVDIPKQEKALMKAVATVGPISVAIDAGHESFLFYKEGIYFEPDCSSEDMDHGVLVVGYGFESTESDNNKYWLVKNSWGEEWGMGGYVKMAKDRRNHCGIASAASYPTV
For the next assay, the target named is T2, Aspartyl aminopeptidase (Plasmodium falciparum 3D7, UniProt Q8I2J3).
T2 sequence (Q8I2J3 whole entry): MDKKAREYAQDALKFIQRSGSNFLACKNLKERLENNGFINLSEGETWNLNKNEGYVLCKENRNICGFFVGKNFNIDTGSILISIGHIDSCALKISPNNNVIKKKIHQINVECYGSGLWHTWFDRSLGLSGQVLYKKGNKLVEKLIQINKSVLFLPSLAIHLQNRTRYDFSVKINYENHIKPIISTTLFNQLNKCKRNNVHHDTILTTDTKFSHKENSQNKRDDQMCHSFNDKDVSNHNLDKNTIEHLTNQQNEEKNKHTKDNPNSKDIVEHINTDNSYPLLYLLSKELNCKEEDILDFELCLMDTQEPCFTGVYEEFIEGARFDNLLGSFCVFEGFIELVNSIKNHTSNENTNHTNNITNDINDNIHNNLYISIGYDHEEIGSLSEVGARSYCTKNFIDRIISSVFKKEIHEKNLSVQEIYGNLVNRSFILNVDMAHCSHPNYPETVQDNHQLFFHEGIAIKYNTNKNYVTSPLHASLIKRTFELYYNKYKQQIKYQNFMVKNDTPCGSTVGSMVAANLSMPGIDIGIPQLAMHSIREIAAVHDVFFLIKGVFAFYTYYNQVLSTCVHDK
Nature of the assay: Counterscreen for inhibitors of M1 and M17 aminopeptidases: QFRET-based biochemical high throughput dose response assay for inhibitors of the Plasmodium falciparum M18 Aspartyl Aminopeptidase (PFM18AAP). [Related PubChem assays: 1619 (Screening assay (M17LAP inhibitors).), 1445 (Screening assay (M1AAP inhibitors).)].

Assay [1] addresses T3, Estrogen receptor beta (Homo sapiens, UniProt Q92731). Nature of the assay: ERβ–SRC-3 coactivator interaction inhibitors, confirmation, orthogonal assay, biochemical, ELISA, streptavidin-HRP readout (AID 1060). (In general: In an ELISA, binding on a coated surface is turned into a signal by an enzyme label.)
Assay [2] has as its target T3, Estrogen receptor beta.
A further assay concerns the target T4, Estrogen receptor (Homo sapiens, UniProt P03372).
T4 sequence (P03372 whole entry): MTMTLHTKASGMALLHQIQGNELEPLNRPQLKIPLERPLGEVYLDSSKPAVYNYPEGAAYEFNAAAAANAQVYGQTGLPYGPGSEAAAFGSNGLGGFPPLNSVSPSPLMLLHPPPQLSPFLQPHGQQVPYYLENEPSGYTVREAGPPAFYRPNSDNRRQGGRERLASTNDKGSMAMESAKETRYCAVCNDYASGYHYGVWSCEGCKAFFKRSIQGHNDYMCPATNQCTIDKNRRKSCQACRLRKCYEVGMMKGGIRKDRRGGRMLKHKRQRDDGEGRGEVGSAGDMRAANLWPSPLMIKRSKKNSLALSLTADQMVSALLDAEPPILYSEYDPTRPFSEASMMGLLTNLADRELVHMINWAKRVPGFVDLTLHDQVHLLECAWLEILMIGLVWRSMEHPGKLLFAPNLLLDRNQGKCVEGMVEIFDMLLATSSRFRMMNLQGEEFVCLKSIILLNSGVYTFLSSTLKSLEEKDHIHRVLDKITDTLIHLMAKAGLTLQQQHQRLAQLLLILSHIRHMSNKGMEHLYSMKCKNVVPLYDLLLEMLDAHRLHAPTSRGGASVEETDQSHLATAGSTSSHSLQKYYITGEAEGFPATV

Assay [3] in a line: Luminescence-based dose response cell-based high throughput screening assay for cytotoxic compounds using the IEC-6 intestinal epithelial cell line. [Related pubchem assays: 1858 (Summary AID.), 1825 (Counterscreen.), 1907 (Confirmation screen.)]. It counts as functional.
Assay [4] in a line: nonselective inhibitors of cellular cAMP signaling, dose response, counter-screen for MC4R biased antagonist project, cell-based, TR-FRET cAMP detection (AID 602305).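 Further: U2OS cells stimulated with forskolin near its EC80 as the cAMP inducer; potency is for inhibition of forskolin-stimulated cAMP signaling.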 Format: functional.
A short description of assay [5]: growth suppression of beta-catenin-knockout colon cells, dose response, cell-based, HCT116, human colon tumor (AID 1045).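 Further: HCT116 colon tumor cells with beta catenin knocked out; cells exposed to compound for 60 hours.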 Format: functional.
Assay [6] is described as follows: cytotoxicity toward DRD oncogenic fibroblasts, dose response, cell-based, non-viral oncogenic, luminescence (AID 1934). Conditions: Homo sapiens. It counts as functional.
Assay [7] addresses ATP-dependent molecular chaperone HSP82 (Candida albicans (strain WO-1) (Yeast), UniProt C4YTQ8). As to the kind of experiment: loss of DOC-induced GRE-beta-galactosidase reporter signal, dose response, Hsp90 inhibitor project, S. cerevisiae, luminescence (AID 2400).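 Further: beta-galactosidase luminescence from glucocorticoid response element reporter as proxy for Hsp90 function; inhibitor potency where signal loss means Hsp90 inhibition.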 It counts as functional, cell-based.
Assay [8] in a line: inhibitors of firefly luciferase expression or activity, dose response, H4 neuroglioma cells, luminescence (AID 1990). Format: functional, cell-based.
Assay [9] concerns BJ. As to the kind of experiment: cytotoxicity toward BJ-TERT fibroblasts, dose response, cell-based, RAS-independent, luminescence (AID 1933). Format: functional. Conditions: Homo sapiens.
Assay [10] has as its system BJ. As to the kind of experiment: cytotoxicity toward Ras-transformed BJeLR fibroblasts, dose response, cell-based, alamar blue fluorescence, cherrypicked samples (AID 2631).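 Further: confirmatory dose-response assay in RAS-dependent BJ fibroblasts engineered with TERT, LT and ST, with cytotoxicity read by fluorescence.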 It counts as functional. Conditions: Homo sapiens.
A short description of assay [11]: inhibitors of SNCA 5'UTR-driven reporter translation, confirmation, H4 neuroglioma cells, luminescence (AID 1988). Format: functional, cell-based.
Assay [12] in a line: NIH-3T3 fibroblast cytotoxicity, dose response, cytotoxicity control, cell-based, fluorescence, Alamar Blue, secondary assay (AID 2327).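 Further: NIH-3T3 mouse fibroblasts cultured with fluconazole at 8 µg/mL.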 It counts as functional.
The target of assay [13] is T5, Serine/threonine-protein phosphatase (Candida dubliniensis (strain CD36 / CBS 7987 / NCPF 3949 / NRRLY-17841) (Yeast), UniProt B9W6M3).
T5 sequence (B9W6M3 whole entry): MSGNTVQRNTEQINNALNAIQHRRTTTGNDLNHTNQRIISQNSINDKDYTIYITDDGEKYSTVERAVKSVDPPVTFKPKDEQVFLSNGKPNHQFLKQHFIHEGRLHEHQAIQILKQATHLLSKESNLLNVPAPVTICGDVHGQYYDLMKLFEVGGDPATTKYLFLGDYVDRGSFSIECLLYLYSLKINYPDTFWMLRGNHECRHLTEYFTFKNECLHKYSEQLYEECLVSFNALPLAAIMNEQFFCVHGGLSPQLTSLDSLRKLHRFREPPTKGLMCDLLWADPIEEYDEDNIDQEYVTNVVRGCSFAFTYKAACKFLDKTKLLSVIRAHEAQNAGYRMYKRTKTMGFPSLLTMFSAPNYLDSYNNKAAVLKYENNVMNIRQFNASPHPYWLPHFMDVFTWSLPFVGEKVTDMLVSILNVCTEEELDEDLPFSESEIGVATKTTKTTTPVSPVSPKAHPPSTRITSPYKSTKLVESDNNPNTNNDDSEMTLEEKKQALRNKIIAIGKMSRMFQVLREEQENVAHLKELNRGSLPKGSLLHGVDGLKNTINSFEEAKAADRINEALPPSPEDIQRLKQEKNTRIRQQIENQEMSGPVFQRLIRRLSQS
Nature of the assay: calcineurin pathway inhibitors in yeast reporter, dose response, S. cerevisiae, CDRE-lacZ, luminescence, secondary (AID 2388).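 Further: yeast reporter cells carrying a calcineurin-responsive lacZ construct stimulated with calcium chloride; luminescent beta-galactosidase reporter signal in whole cells rather than isolated phosphatase activity; potency for inhibition where a drop in reporter signal means calcineurin blockade.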 It counts as functional, cell-based.

Assay [14] deals with BJ. As to the kind of experiment: cytotoxicity toward BJ-TERT-LT-ST fibroblasts, dose response, cell-based, RAS-independent, luminescence (AID 1935).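 Further: BJ fibroblasts immortalized with TERT plus LT and ST oncogenes.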 It counts as functional. To be noted: Homo sapiens.
For a further assay, the target named is Melanocortin receptor 4 (Homo sapiens, UniProt P32245). As to the kind of experiment: MC4R antagonist potency on cAMP, dose response, cell-based, TR-FRET, biased antagonists (AID 602298).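 Further: antagonist potency against agonist-stimulated cAMP production.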 It counts as functional.
Melanocortin receptor 4, sequence (P32245 whole entry): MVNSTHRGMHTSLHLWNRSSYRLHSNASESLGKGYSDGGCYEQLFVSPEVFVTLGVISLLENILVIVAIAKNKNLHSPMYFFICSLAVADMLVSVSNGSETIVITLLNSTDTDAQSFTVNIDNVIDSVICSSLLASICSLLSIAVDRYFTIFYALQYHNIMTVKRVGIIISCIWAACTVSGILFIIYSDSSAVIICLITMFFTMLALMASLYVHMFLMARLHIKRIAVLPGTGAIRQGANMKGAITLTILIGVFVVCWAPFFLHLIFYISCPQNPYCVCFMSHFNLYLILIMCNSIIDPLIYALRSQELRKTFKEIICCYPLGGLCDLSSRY
Assay [15] can be described thus: C. albicans growth with fluconazole, confirmation, fluorescence, retest (AID 2467). Format: functional, cell-based.
A further assay deals with Paired box protein Pax-8 (Homo sapiens, UniProt Q06710). Nature of the assay: inhibitors of PAX8-driven TPO luciferase reporter, dose response, RMG-I cells, cherry-pick (AID 687027).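 Further: luciferase reporter driven by Pax8 target thyroperoxidase promoter measured by SteadyGlo luminescence.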 It counts as functional, cell-based. Background: In a reporter assay the amount or activity of a reporter protein is the signal.
Paired box protein Pax-8, sequence (Q06710 whole entry): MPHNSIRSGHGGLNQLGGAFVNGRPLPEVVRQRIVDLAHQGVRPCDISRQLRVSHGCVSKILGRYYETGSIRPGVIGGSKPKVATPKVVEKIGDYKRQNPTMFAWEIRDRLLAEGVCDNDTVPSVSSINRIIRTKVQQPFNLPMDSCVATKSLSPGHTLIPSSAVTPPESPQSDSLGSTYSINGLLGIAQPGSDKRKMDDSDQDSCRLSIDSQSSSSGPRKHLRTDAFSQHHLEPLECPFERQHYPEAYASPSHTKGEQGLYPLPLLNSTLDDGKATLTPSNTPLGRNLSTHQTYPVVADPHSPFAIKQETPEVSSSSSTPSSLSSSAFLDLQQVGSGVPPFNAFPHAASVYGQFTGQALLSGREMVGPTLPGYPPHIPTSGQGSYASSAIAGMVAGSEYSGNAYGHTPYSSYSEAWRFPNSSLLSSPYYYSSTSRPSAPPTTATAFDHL
The nature of assay [16]: growth suppression of PTEN-null colon cells, dose response, cell-based, HCT116 PTEN knockout (AID 1047).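 Further: HCT116 colon tumor cells with PTEN knocked out; cells exposed to compound for 60 hours before readout; potency for loss of cell viability measured by luminescence.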 It counts as functional.
The test system of assay [17] is BJ. As to the kind of experiment: cells. Format: functional, cell-based. To be noted: Homo sapiens.
A short description of assay [18]: Luminescence Cell-Based Dose Response HTS to Identify Inhibitors of 5'UTR Stem-Loop Driven Prion Protein mRNA Translation in H4 Neuroglioblastoma Cells. [Related pubchem assays: 1827 (Project Summary), 1813 (Primary HTS)]. Format: functional.

Calls of active or inactive are those of the source.

T3 sequence (Q92731 whole entry): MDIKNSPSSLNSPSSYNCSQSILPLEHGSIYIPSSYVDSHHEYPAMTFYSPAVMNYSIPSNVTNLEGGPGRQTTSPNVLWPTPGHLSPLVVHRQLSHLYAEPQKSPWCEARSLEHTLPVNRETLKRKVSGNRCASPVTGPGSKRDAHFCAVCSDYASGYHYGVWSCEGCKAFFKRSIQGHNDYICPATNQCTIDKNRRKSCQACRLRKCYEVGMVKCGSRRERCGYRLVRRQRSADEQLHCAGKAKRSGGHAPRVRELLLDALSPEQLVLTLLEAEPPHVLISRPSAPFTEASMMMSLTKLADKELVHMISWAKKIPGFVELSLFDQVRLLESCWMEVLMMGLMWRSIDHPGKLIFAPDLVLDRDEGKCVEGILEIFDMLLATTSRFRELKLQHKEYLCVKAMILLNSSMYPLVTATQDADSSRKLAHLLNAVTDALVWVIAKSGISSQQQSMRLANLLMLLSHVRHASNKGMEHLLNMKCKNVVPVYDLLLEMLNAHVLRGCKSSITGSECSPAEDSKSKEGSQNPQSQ
ATP-dependent molecular chaperone HSP82, sequence (C4YTQ8 whole entry): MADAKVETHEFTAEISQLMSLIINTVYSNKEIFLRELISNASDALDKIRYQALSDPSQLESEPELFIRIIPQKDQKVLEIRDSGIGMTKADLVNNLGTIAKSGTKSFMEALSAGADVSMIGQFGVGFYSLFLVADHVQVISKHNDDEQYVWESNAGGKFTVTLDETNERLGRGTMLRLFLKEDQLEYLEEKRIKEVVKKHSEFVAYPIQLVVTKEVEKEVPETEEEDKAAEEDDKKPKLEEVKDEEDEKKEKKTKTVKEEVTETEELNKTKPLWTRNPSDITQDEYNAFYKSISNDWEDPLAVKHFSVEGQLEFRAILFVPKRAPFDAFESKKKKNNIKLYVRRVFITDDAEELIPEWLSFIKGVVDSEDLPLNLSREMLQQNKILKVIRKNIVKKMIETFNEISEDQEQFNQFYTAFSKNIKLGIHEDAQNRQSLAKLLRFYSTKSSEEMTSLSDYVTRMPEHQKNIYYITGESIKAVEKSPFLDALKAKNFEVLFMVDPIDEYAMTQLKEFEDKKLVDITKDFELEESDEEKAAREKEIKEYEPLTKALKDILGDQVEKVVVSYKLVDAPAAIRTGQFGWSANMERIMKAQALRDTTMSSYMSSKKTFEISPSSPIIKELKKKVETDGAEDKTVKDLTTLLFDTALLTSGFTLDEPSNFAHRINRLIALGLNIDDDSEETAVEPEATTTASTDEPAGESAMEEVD

In the case of `N#Cc1c(NC(=O)C2C3C=CC(C3)C2C(=O)O)sc2c1CCCCC2` (centres undefined), the IC50 (in general, the point on the concentration scale where inhibition reaches its midpoint) at Leucine aminopeptidase is 1.39 µM (active); against Procathepsin L, > 59.6 µM (not active); on Aspartyl aminopeptidase, > 73.5 µM (not active).
With `O=Cc1ccc2oc3nc4n(c(=O)c3c(=O)c2c1)CCCS4`, the IC50 is > 50 µM (not active) against Estrogen receptor beta [1], > 50 µM (not active) against Estrogen receptor beta [2] and 17.8 µM (active) at Estrogen receptor.
As to `O=C(NC(Nc1nc2ccc([N+](=O)[O-])cc2s1)(C(F)(F)F)C(F)(F)F)c1ccccc1Cl`, the IC50 in assay [3] is 1.64 µM (active); in assay [4], > 64.6 µM (inactive); at Melanocortin receptor 4, > 64.6 µM (inactive). Besides, the EC50 (commonly the concentration needed to bring the measured effect to its halfway point) in [5] is 0.242 µM (active); in assay [6], 1.81 µM (active); in [7] it was 22.6 µM (active); in assay [8], 0.266 µM (active); in the assay on BJ [9] it was 1.35 µM (active); in the assay with BJ [10] it was 1.11 µM (active). Also, the EC50 was 0.242 µM (active) in [11]; 12.3 µM (active) in assay [12]; > 180 µM (inactive) in assay [13]; 5.65 µM (inconclusive) with BJ [14]; 0.758 µM (active) in [15]; 0.234 µM (active) in assay [16]. Moreover, the figures for the EC50 (with BJ [17]; in [18]) were 1.41 µM (active) and 6.53 µM (active), respectively. In addition, the half-maximal activity concentration (AC50) (in general, the midpoint of the concentration-response curve, whichever way the signal moves) on Paired box protein Pax-8 is 0.676 µM (active).

Source of the values: ChEMBL document CHEMBL1201862, “PubChem BioAssay data set” (2004).
